Source: patent US6706716B2, “Compounds specific for the human α1d adrenergic receptor and uses thereof” (Synaptic Pharmaceutical Corporation, priority 1998, dated 2004)

Assays:
[1] = target: T1, human α1b adrenergic receptor (Homo sapiens, UniProt P35368); assay: Radioligand binding ([3H]prazosin) at cloned human α1b adrenergic receptor; details: LM(tk-) cell membranes, read-out: Binding affinities (pKi) α1b (converted)
T1 construct: The entire coding region of α1b (1563 bp); expressed in transfected cells
T1 sequence (P35368 1-520): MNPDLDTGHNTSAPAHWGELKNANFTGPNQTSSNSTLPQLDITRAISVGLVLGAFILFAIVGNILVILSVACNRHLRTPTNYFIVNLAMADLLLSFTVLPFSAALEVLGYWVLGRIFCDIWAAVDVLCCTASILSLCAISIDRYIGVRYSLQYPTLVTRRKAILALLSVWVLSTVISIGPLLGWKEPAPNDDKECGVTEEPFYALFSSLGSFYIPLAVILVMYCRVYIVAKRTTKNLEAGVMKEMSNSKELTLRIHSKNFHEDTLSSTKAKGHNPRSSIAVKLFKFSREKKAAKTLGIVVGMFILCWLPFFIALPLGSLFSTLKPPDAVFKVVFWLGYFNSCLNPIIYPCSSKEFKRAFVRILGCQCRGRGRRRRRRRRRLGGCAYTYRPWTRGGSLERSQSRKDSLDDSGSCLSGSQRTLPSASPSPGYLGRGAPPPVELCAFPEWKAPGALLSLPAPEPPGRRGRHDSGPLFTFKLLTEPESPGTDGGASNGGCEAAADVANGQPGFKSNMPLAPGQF
Method: (§1) First, conditions were determined which allowed measurement of the specific binding of a compound known to bind to the receptor. Then, the binding of the known compound to the receptor in membrane preparations was evaluated in the presence of several different concentrations of the test compound.
(§2) These cell lines were prepared by transfecting the cloned cDNA or cloned genomic DNA or constructs containing both genomic DNA and cDNA encoding the human receptors as described below.
α1b Human Adrenergic Receptor: The entire coding region of α1b (1563 bp), including 200 base pairs of 5′ untranslated sequence (5′ UT) and 600 bp of 3′ untranslated sequence (3′ UT), was cloned into the EcoRI site of pCEXV-3 eukaryotic expression vector. The construct involved ligating the full-length EcoRI brainstem cDNA fragment from λ ZapII into the expression vector. Stable cell lines were selected as described above. Membranes were harvested and assayed for their ability to bind [^3H]prazosin as described below (see Radioligand Binding assays). The cell line used herein was designated L-α1B and was deposited with the American Type Culture Collection, 12301 Parklawn Drive, Rockville, Md. 20852, U.S.A. under the provisions of the Budapest Treaty for the International Recognition of the Deposit of Microorganisms for the Purposes of Patent Procedure. The cell line L-α1B was accorded ATCC Accession No. CR 11139, on Sep. 29, 1992.
(§3) Radioligand Binding Assays for α1 Human Adrenergic Receptors: Transfected cells from culture flasks were scraped into 5 ml of 5 mM Tris-HCl, 5 mM EDTA, pH 7.5, and lysed by sonication. The cell lysates were centrifuged at 1000 rpm for 5 min at 4° C., and the supernatant was centrifuged at 30,000×g for 20 min at 4° C. The pellet was suspended in 50 mM Tris-HCl, 1 mM MgCl2, and 0.1% ascorbic acid at pH 7.5. Binding of the α1, antagonist [^3H]prazosin (0.5 nM, specific activity 76.2 Ci/mmol) to membrane preparations of LM(tk-) cells was done in a final volume of 0.25 ml and incubated at 37° C. for 1 hour. Nonspecific binding was determined in the presence of 10 μM phentolamine. The reaction was stopped by filtration through GF/B filters using a cell harvester.

[2] = target: T2, human α1d adrenergic receptor (Homo sapiens, UniProt P25100); assay: Radioligand binding ([3H]prazosin) at cloned human α1d adrenergic receptor; details: LM(tk-) cell membranes, read-out: Binding affinities (pKi) α1d (converted)
T2 construct: The entire coding region. of α1d (1719 bp); expressed in transfected cells
T2 sequence (P25100 1-572): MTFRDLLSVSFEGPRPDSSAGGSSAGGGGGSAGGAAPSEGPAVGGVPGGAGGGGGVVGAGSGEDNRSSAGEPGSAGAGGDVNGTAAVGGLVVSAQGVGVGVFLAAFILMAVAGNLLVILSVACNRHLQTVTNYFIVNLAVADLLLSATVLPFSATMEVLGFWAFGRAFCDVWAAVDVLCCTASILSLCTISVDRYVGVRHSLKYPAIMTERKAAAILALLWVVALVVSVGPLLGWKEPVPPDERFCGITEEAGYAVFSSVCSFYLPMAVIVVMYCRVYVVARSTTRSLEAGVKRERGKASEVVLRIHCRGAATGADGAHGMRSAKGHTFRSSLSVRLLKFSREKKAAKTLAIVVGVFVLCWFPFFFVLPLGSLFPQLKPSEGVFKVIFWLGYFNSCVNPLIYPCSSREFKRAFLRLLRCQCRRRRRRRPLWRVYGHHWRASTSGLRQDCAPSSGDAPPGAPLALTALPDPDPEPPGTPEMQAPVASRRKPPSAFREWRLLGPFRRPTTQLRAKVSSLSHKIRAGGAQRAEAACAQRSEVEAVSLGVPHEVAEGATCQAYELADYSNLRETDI
Method: as §1, §2
α1d Human Adrenergic Receptor: The entire coding region. of α1d (1719 bp), including 150 base pairs of 5′ untranslated sequence (5′ UT) and 300 bp of 3′ untranslated sequence (3′ UT), was cloned into the BamHI and ClaI sites of the polylinker-modified eukaryotic expression vector pCEXV-3, called EXJ.HR. The construct involved the ligation of partial overlapping human lymphocyte genomic and hippocampal cDNA clones: 5′ sequence were contained on a 1.2 kb SmaI-XhoI genomic fragment (the vector-derived BamHI site was used for subcloning instead of the internal insert-derived SmaI site) and 3′ sequences were contained on a 1.3 kb XhoI-ClaI cDNA fragment (the ClaI site was from the vector polylinker). Stable cell lines were obtained by cotransfection with the plasmid α1A/EXJ (expression vector containing the α1a receptor gene (old nomenclature)) and the plasmid pGCcos3neo (plasmid containing the aminoglycoside transferase gene) into LM(tk-) cells using the calcium phosphate technique. The cells were grown, in a controlled environment (37° C., 5% CO2), as monolayers in Dulbecco's modified Eagle's Medium (GIBCO, Grand Island, N.Y.) containing 25 mM glucose and supplemented with 10% bovine calf serum, 100 units/ml penicillin g, and 100 μg/ml streptomycin sulfate. Stable clones were then selected for resistance to the antibiotic G-418 (1 mg/ml), and membranes were harvested and assayed for their ability to bind [^3H]prazosin as described below (see Radioligand Binding assays).
The cell line expressing the human α1d receptor used herein was designated L-α1A (old nomenclature) and was deposited with the American Type Culture Collection, 12301 Parklawn Drive, Rockville, Md. 20852, U.S.A. under the provisions of the Budapest Treaty for the International Recognition of the Deposit of Microorganisms for the Purposes of Patent Procedure. The cell line expressing the human α1d receptor, was accorded ATCC Accession No. CRL 11138, and was deposited on Sep. 25, 1992.
as §3

| Ki [1] [nM] | Ki [2] [nM] | SMILES |
| --- | --- | --- |
| 50.1 | 1 | O=C1CC2(CCCC2)CC(=O)N1CCN1CCN(c2cc(F)ccc2F)CC1 [Compound 6, 8-{2-[4-(2,5-Difluorophenyl)piperazin-1-yl]ethyl}-8-azaspiro[4.5]decane-7,9-dione] |
| 3160 | 39.8 | Cc1ccc(Cl)cc1N1CCN(CCN2C(=O)CC3(CCCC3)CC2=O)CC1 [Compound 13, 8-{2-[4-(5-Chloro-2-methylphenyl)piperazino]ethyl}-8-azaspiro [4.5]decane-7,9-dione] |

Second part, the compound before the results:

| SMILES | Ki [1] [nM] | Ki [2] [nM] |
| --- | --- | --- |
| O=C1CC2(CCCC2)CC(=O)N1CCN1CCN(c2cc(F)c(F)cc2F)CC1 [Compound 7, 8-{2-[4-(2,4,5-Trifluorophenyl)piperazin-1-yl]ethyl}-8-azaspiro[4.5]decane-7,9-dione] | 398 | 2 |
| C[C@H](CN1CCN(c2cc(F)ccc2F)CC1)N1C(=O)CC2(CCCC2)CC1=O [Compound 8, 8-{(1R)-2-[4-(2,5-Difluorophenyl)piperazin-1-yl]-1-methylethyl}-8-azaspiro[4.5]decane-7,9-dione] | 63.1 | 0.794 |
| C[C@@H](CN1CCN(c2cc(F)ccc2F)CC1)N1C(=O)CC2(CCCC2)CC1=O [Compound 10, 8-{(1S)-2-[4-(2,5-Difluorophenyl)piperazin-1-yl]-1-methylethyl}-8-azaspiro[4.5]decane-7,9-dione] | 3980 | 50.1 |
| COc1ccc(F)cc1C1CCN(CCN2C(=O)CC3(CCCC3)CC2=O)CC1 [Compound 12, 8-{2-[4-(5-Fluoro-2-methoxyphenyl)piperidin-1-yl]ethyl}-8-azaspiro[4.5]decane-7,9-dione] | 63.1 | 1 |
| O=C1CC2(CCCC2)CC(=O)N1CCN1CCN(c2c(F)cccc2F)CC1 [Compound 14, 8-{2-[4-(2,6-Difluorophenyl)piperazino]ethyl}-8-azaspiro[4.5]decane-7,9-dione] | 126 | 3.98 |
| O=C1CC2(CCCC2)CC(=O)N1CCN1CCN(c2ccc(F)c(F)c2)CC1 [Compound 15, 8-{2-[4-(3,4-Difluorophenyl)piperazin-1-yl]ethyl}-8-azaspiro[4.5]decane-7,9-dione] | 1580 | 7.94 |
